Experimental data from patent US5593970A, “Heterocyclic anthracycline analogs” (priority 1994, dated 1997).
Counter-ions that a name gives are not always drawn.

How the values were obtained:
Assay in all cases: Soft agar colony formation disk diffusion assay
M5076 = format: cell-based, murine
From the text: (§1) A more elaborate version of this fundamental assay, the soft agar colony formation disk diffusion assay was used. This assay defines the relative activity of one particular drug versus a tumoral cell line type. The effect of the test drug against tumoral cells could be measured by its inhibitory capacity against colony formation after the delivery of the compound, in different concentrations on an filter disk(4). A modified technique of this assay was used in order to investigate the antiproliferative activity of candidate compounds. Tumoral cells from solid tumors and ascitic lines were plated separately in a two layer agar matrix. Cell lines to be tested were suspended in an upper layer of 0.4% Noble agar (Difco#00142-01) in RPMI-1066 (Gibco#3201875) at a yield varying between 10^4 to 2×10^5 cells per 60 mm Petri dish. Plating efficiency was determined for each line in order to achieve an optimal number of colonies per dish. Plates were examined before drug administration to confirm a uniform dispersion of single cells. The bottom layer consisted of 0.8% Noble agar, 0.8% Tryptic Soy Broth (difco#0037001)in CMRL-1066/Fischer's. The bottom layers were used within 2 and 9 days of preparation. Plated dishes (bottom layer of agar, upper layer of cells and administered drug were incubated in humidified atmosphere at 37° C., 5% CO2 for 10-20 days depending upon the time necessary to observe adequate colonies (defined as a cell aggregate of more than 50 cells) both control and drug inhibited. Drugs were administered on a paper filter disk (Whatman No. 1) of 6.5 mm diameter placed on the upper layer at 1/3 distance from the edge of the dish. The anti-clonogenic activity of the compounds was measured as the zone of inhibition from the disk edge to the most proximal colonies. This zone of inhibition was checked on an inverted microscope (40×) and was measured with a micrometer mounted in the eyepiece. The ocular micrometer was calibrated with a stage micrometer set for a particular combination of ocular and objective lenses. […] We made a modification of the initial technique by not plating a solid tumor and a leukemia simultaneously in the same Petri dish. Anti-clonogenic tests performed on leukemia cell line have helped in the discovery of the majority of current clinically used cytostatic drugs. Our tests on solid tumor lines (animal or human) may help define active compounds with solid tumor specificity. […] Murine tumors were maintained IN VIVO in order to diminish the selection of subpopulations of cells normally present in the heterogenous IN VIVO tumor. The actual drug sensitivity assay was done IN VITRO. For these experiments cells from freshly excised tumors or from ascitic fluids were maintained in RPMI-1066. Both compounds were dissolved in DMSO (1 mg/100 ul) and brought to final volume (250 ul) with Millipore deionized sterile water. Further dilutions were made with […] volume of 25 ul of freshly prepared solution was placed on the filter disk and allowed to dry.

LL = format: cell-based, murine
From the text: as §1

B16 = format: cell-based, murine
From the text: as §1

P388/ADR = format: cell-based, murine
From the text: as §1

P388 = format: cell-based, murine
From the text: as §1

HT29 = format: cell-based, human
From the text: A more elaborate version of this fundamental assay, the soft agar colony formation disk diffusion assay was used. […] The effect of the test drug against tumoral cells could be measured by its inhibitory capacity against colony formation after the delivery of the compound, in different concentrations on an filter disk(4). A modified technique of this assay was used in order to investigate the antiproliferative activity of candidate compounds. Tumoral cells from solid tumors and ascitic lines were plated separately in a two layer agar matrix. Cell lines to be tested were suspended in an upper layer of 0.4% Noble agar (Difco#00142-01) in RPMI-1066 (Gibco#3201875) at a yield varying between 10^4 to 2×10^5 cells per 60 mm Petri dish. Plating efficiency was determined for each line in order to achieve an optimal number of colonies per dish. […] The bottom layer consisted of 0.8% Noble agar, 0.8% Tryptic Soy Broth (difco#0037001)in CMRL-1066/Fischer's. The bottom layers were used within 2 and 9 days of preparation. Plated dishes (bottom layer of agar, upper layer of cells and administered drug were incubated in humidified atmosphere at 37° C., 5% CO2 for 10-20 days depending upon the time necessary to observe adequate colonies (defined as a cell aggregate of more than 50 cells) both control and drug inhibited. Drugs were administered on a paper filter disk (Whatman No. 1) of 6.5 mm diameter placed on the upper layer at 1/3 distance from the edge of the dish. The anti-clonogenic activity of the compounds was measured as the zone of inhibition from the disk edge to the most proximal colonies. This zone of inhibition was checked on an inverted microscope (40×) and was measured with a micrometer mounted in the eyepiece. The ocular micrometer was calibrated with a stage micrometer set for a particular combination of ocular and objective lenses. […] We made a modification of the initial technique by not plating a solid tumor and a leukemia simultaneously in the same Petri dish. […] HUMAN TUMORS. […] LS180 (13) and BE1(14) were obtained from the Oncology Dept. of the Montreal General Hospital. […] Cell lines were routinely passaged twice a week by trypsinization and maintained in 25, or 75-sq. cm Falcon Plastic flasks at 37° C., 5% CO2 in humidified atmosphere. Both compounds were dissolved in DMSO (1 mg/100 ul) and brought to final volume (250 ul) with Millipore deionized sterile water. Further dilutions were made with […] volume of 25 ul of freshly prepared solution was placed on the filter disk and allowed to dry.

| Compound | zone of inhibition (M5076; 10 μg/DISK) | zone of inhibition (M5076; 100 μg/DISK) | zone of inhibition (LL; 100 μg/DISK) | zone of inhibition (B16; 10 μg/DISK) | zone of inhibition (B16; 100 μg/DISK) | zone of inhibition (P388/ADR; 10 μg/DISK) | zone of inhibition (P388/ADR; 100 μg/DISK) | zone of inhibition (P388; 10 μg/DISK) | zone of inhibition (P388; 100 μg/DISK) | zone of inhibition (HT29; 10 μg/DISK) | zone of inhibition (HT29; 100 μg/DISK) | zone of inhibition (LL; 10 μg/DISK) |
| --- | --- | --- | --- | --- | --- | --- | --- | --- | --- | --- | --- | --- |
| 3-carbomethoxy-6-hydroxy-1,2,3,4-tetrahydro-(2-sulfur)naphthacene-5,12-dione and 3-carbomethoxy-11-hydroxy-1,2,3,4-tetrahydro(2-sulfur)naphthacene-5,12-dione [BCH-693] | 27.4 ± 4.3 Zone Units | 51.8 ± 12.9 Zone Units | 45.7 ± 21.5 Zone Units | 0 Zone Units | 27.4 ± 4.3 Zone Units | 20.0 ± 0.0 Zone Units | 76.5 ± 21.9 Zone Units | 120.0 ± 0.0 Zone Units | 400.0 Zone Units | 0 Zone Units | 39.6 ± 4.3 Zone Units | – |
| CCOC(=O)[C@@H]1CC2=C(C(=O)c3c(c(O)c4ccccc4c3OC(C)=O)C2=O)[C@@H](O)O1 (mixture of isomers) [BCH-658, (1S,3S) and (1R,3R) Ethyl[11-acetoxy-1,6-dihydroxy-5,12-dioxo-3,4,5,12-tetrahydroanthraceno (2,3-c)pyran-3-yl]formate] | 26.6 ± 13.6 Zone Units | 76.2 ± 21.5 Zone Units | 51.9 ± 21.5 Zone Units | 0 Zone Units | 0 Zone Units | 18.3 ± 8.6 Zone Units | 51.3 ± 20.7 Zone Units | 42.7 ± 17.2 Zone Units | 61.0 ± 0.0 Zone Units | 0 Zone Units | 0 Zone Units | – |
| CCOC(=O)[C@@H]1CC2=C(C(=O)c3cc4ccccc4c(OC(C)=O)c3C2=O)[C@@H](O)O1 (mixture of isomers) [BCH-660, (1S,3S) and (1R,3R)-Ethyl-[6-acetoxy-1-hydroxy-5,12-dioxo-3,4,5,12-tetrahydroanthraceno (2,3-c)pyran-3-yl]formate] | 24.4 ± 8.6 Zone Units | 61.0 ± 0.0 Zone Units | 55.0 ± 8.4 Zone Units | 6.1 ± 8.6 Zone Units | 85.4 ± 8.6 Zone Units | 6.1 ± 8.6 Zone Units | 54.9 ± 8.6 Zone Units | 18.3 ± 8.6 Zone Units | 54.9 ± 0.0 Zone Units | 27.4 ± 4.3 Zone Units | 103.7 ± 2.1 Zone Units | – |
| COC(=O)[C@H]1CC2=C(C(=O)c3c(c(OC)c4ccccc4c3O)C2=O)[C@H](O[C@H]2C[C@H](NC(=O)C(F)(F)F)[C@H](O)[C@H](C)O2)O1 (mixture of isomers) [BCH-675, (1'S,1S,3R) and 1'S,1R,3S) Methyl(11-hydroxy-6-methoxy-1-[2',3',6'-trideoxy-3-trifluoroacetamido-4'-hydroxy-L-lyxohexopyranose]-5,12-dioxo-3,4,5,12-tetrahydroanthra-ceno[2,3-c]pyran-3-yl) formate] | 0 Zone Units | 142.0 ± 35.2 Zone Units | 264.0 ± 38.0 Zone Units | 0 Zone Units | 0 Zone Units | 10.1 ± 9.3 Zone Units | 146.3 ± 32.3 Zone Units | 0 Zone Units | 152.5 ± 30.5 Zone Units | 0 Zone Units | 0 Zone Units | 75.2 ± 40.5 Zone Units |
| COC(=O)[C@H]1CC2=C(C(=O)c3c(cc4ccccc4c3O)C2=O)[C@H](O[C@H]2C[C@H](NC(=O)C(F)(F)F)[C@H](O)[C@H](C)O2)O1 (mixture of isomers) [BCH-692, (1'S,1S,3R) and (1'S,1R,3S) Methyl[11-hydroxy-1-(2',3',6'-trideoxy-3'-trifluoroacetamido-4'-hydroxy-L-lyxohexopyranose)-5,12-dioxo-3,4,5,12-tetrahydro-anthraceno[2,3-c]pyran-3-yl]formate] | 50.0 ± 25.5 Zone Units | 200.0 ± 100.0 Zone Units | 140.3 ± 40.5 Zone Units | 0 Zone Units | 200.0 ± 55.0 Zone Units | 25.0 ± 10.0 Zone Units | 150.5 ± 50.0 Zone Units | 50.5 ± 10.9 Zone Units | 180.0 ± 50.6 Zone Units | 105.0 ± 5.0 Zone Units | – | 80.5 ± 20.5 Zone Units |
| CCOC(=O)C1CC2=C(CO1)C(=O)c1c(cc3ccccc3c1O)C2=O (stereo not drawn) [BCH-651, Ethyl(6 and 11 hydroxy-5,12-dioxo-3,4,5,12-tetrahydro-anthraceno[2,3-c]pyran-3-yl)]formate] | 15.2 ± 4.3 Zone Units | 51.3 ± 43.3 Zone Units | 27.4 ± 4.3 Zone Units | 0 Zone Units | 27.5 ± 13.4 Zone Units | 10.0 ± 0.0 Zone Units | 30.5 ± 8.6 Zone Units | 45.7 ± 12.9 Zone Units | 294.5 ± 101.1 Zone Units | 0 Zone Units | 61.0 ± 1.0 Zone Units | – |
| CCOC(=O)C1CC2=C(CO1)C(=O)c1cc3ccccc3c(O)c1C2=O (stereo not drawn) [BCH-653, Ethyl(6 and 11 hydroxy-5,12-dioxo-3,4,5,12-tetrahydro-anthraceno[2,3-c]pyran-3-yl)]formate] | – | 85.4 ± 25.8 Zone Units | 18.3 ± 0.0 Zone Units | – | 0 Zone Units | – | 66.8 ± 8.2 Zone Units | – | 64.0 ± 4.2 Zone Units | – | 42.7 ± 8.6 Zone Units | – |
| CCOC(=O)C1CC2=C(CO1)C(=O)c1c(c(O)c3ccccc3c1OC(C)=O)C2=O (stereo not drawn) [BCH-654, Ethyl[11-acetoxy-6-hydroxy-5,12-dioxo-3,4,5,12-tetrahydroanthraceno(2,3-c)pyran-3-yl]formate] | 0 Zone Units | 0 Zone Units | 0 Zone Units | 0 Zone Units | 137.4 ± 21.8 Zone Units | 0 Zone Units | 0 Zone Units | 0 Zone Units | 0 Zone Units | 0 Zone Units | 106.5 ± 21.9 Zone Units | – |
